Values joined by “and” are separate entries in the source; they are usually repeats but may differ in a detail not shown here. Equal entries are not always repeated.
Columns and labels:
sarcoma M-1 [1] = assay: Accumulation kinetics of photosensitizer in rats with sarcoma M-1; format: in vivo; conditions: rats with sarcoma M-1, 5.0 mg/kg
Protocol: The experiments were conducted on 100 white outbred rats with subcutaneous transplantation of sarcoma M-1, 7-9 days after tumor transplant. Photosensitizers were introduced to the animals via an intravenous route, once at a dose of 2.5, 5.0 and 10.0 mg/kg in a room with a low level of light. A sterile isotonic solution of sodium chloride was used as a solvent. Follow up over the dynamics of photosensitizer accumulation in tumor and normal tissues was conducted at 30 mins, 1-5 hours, and 1-6 days after photosensitizer administration.
In tumor tissues of rats with sarcoma M-1 and normal tissues (skin of opposite haunch), the dynamics of photosensitizer accumulation was analyzed by the method of measurement of life time using computer fluorescent spectrophotometry. For this purpose, a laser-fiber spectroanalyzer “LESA-6” with a helium-neon diagnostic laser “LHN 633-25” (BIOSPEC, Moscow) was used. This allows an estimate locally of the level of photosensitizer accumulation in any organs and tissues accessible for an optical fiber probe.
For real time monitoring at every hour after administration of the drug, the distal end of a catheter was placed over the tumor and normal tissues, and the intensity of the drug accumulation was recorded on the wave length corresponding to maximum fluorescence. […]

sarcoma M-1 [2] = assay: Necrotic area in sarcoma M-1 after PDT; format: in vivo, rats; conditions: for Necrotic area / Ratio of necrotic area to total area: PDT 100 J/cm^2 at 4 hours, mean of 25 slides
Protocol: 2 hours later the animals were killed by chloroform, the tumor was excised and fixed for one hour in 10%-HOM formalin. After fixation, transverse sections of the tumor nodule in its highest diameter were made, and pictures were taken by a camera connected to a computer.
For quantitative assessment of necroses formed after PDT, computer analysis of color tints of histo-topographic tumor slides was performed using a special program.
The program included an algorithm of blue color identification (Evans blue), which stained viable areas of the tumor. Tumor areas killed from direct cytotoxic effect or due to structural-functional disorders of microcirculation were not stained in blue. The ratio of all non-stained dots to the total amount of dots in the fence of the tumor slide was considered to be the destruction efficiency.
For this purpose, a laser medical instrument “ ? 680-2000” (BIOSPEC, Moscow) was used to perform the exposure at a wavelength of 670 nm in a dose of 100 J/cm^2. The power density was 0.51 W/cm^2, the output power was 0.4 W, and the spot light diameter was 1 cm. Time of exposure was […]. Monitoring over radiating power was conducted by a universal power meter included in the laser device “ ? 4680-2000”.

[3] = Quenching of excited triplet states by molecular oxygen; format: physicochemical
From the text: The data presented in Table 2 supports the analysis of specific features of quenching of excited triplet states of chlorin e6-conjugate by molecular oxygen in solutions and biological systems.

Hela cells [4] = assay: Accumulation in Hela cells; format: cell-based; conditions: for concentration in Hela cells: 2×10^−5 M/l, 37° C.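 As to concentration in Hela cells: measured as suspension fluorescence intensity at excitation 405 nm and emission 665 nm.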
Protocol: The cellular accumulation and the targeted delivery of the photoactive compounds were investigated using Hela cells, which is one of the numerous tumor cell types that overexpress folate receptors.
Cells were cultivated for 3 days in medium 199, and transferred to Hank's solution/medium 199 (9/1). After 3 hours, the cell were collected by trypsin treatment from the substrate and placed in Hank's solution (10^5 ? /ml). To cell suspensions, chlorin e6 conjugates were added at a concentration of 2×10^−5 M/l, and incubated at 37° C. After 1, 5, 10, 15, and 24 hours, the samples were centrifuged, the pellet was washed with the cooled Hank's solution, and transferred to Hank's solution at a concentration being equal to that in the initial suspension.

[5] = Spectral and fluorescent parameters of chlorin e6 conjugate in different systems; format: physicochemical
Protocol: Pigment-protein complexes have been formed by adding to the solution of human serum albumin (HAS) a specific amount of photosensitizer dissolved in the same buffer. […] Similarly, the photosensitizer was included in detergent micelle (Triton X-100, C=10^−3M).
The electronic absorption spectra of the subject solution were recorded on Specord UV-Vis. The fluorescence spectra and value of degree of fluorescence polarization (P) were recorded on an automatic spectrofluorimeter (Institute of Physics). Life time of photosensitizer fluorescence (ts) was estimated using an impulse fluorometer operating in the mode of photons counting.
The main feature of the absorption spectrum is intensive (ε=4.8 10^4 M^−1 cm^−1) Qx (0-0) band at 660 nm, which falls into the spectral window of the majority of biological tissues.
Complex formation of chlorin e6 conjugate, and HSA, liposomes or detergent micelles leads to bathochromic shift in the absorption and fluorescence spectra of pigment. However, an increase in fluorescence photoresponse (B) was observed, which correlates with the growth of life time (ts) without changing of the Kravec integral value.

Hela cells [6] = assay: Phototoxicity, 24 h incubation, 1.5-15 joule/cm^2; format: cell-based; conditions: 670-690 nm
Protocol: In other experiment, the cells were incubated with photosensitizers at 37° C. for 24 hours, and irradiated by exposed on ice by a laser medical device “LD 680-2000” (wavelength of 670-690 nm) in a dose of 1.5-15 joule/cm^2.

## [γ-(6-aminohexyl)folic acid]-chlorin e6 [chlorin e6 conjugate]
Sarcoma M-1 [1]
  time of maximum accumulation in tumor tissue: 2 to 5 h
Sarcoma M-1 [2]; 2.5 mg/kg
  Necrotic area: 0.637 cm^2
  Ratio of necrotic area to total area: 25.56±1.65% and 25.56%
Sarcoma M-1 [2]; 5.0 mg/kg
  Necrotic area: 0.741 cm^2
  Ratio of necrotic area to total area: 34.16±2.16% and 34.16%
Sarcoma M-1 [2]; 10.0 mg/kg, 1 hr exposure
  anti-tumor effect compared among dose and exposure groups: most prominent anti-tumor effect
Sarcoma M-1 [2]; 10.0 mg/kg
  Necrotic area: 1.205 cm^2
  Ratio of necrotic area to total area: 66.16±3.83% and 66.16%
Sarcoma M-1 [2]; 10.0 mg/kg, listed as chlorin e6-folic acid conjugate
  Ratio of necrotic area to total area: 66.16%
[3]; Pyridine
  bi-molecular rate constant for O2 quenching of the triplet excited state: 4.5×10^9 M^−1 c^−1
[3]; buffer solution
  bi-molecular rate constant for O2 quenching of the triplet excited state: 1.5×10^9 M^−1 c^−1
[3]; lipid bilayer
  bi-molecular rate constant for O2 quenching of the triplet excited state: 9×10^9 M^−1 c^−1
[3]; micellar complex (Triton X-100), upper limit
  bi-molecular rate constant for O2 quenching of the triplet excited state: 1.5×10^9 M^−1 c^−1
[3]; pigment-protein complex, upper limit
  bi-molecular rate constant for O2 quenching of the triplet excited state: 2.5×10^9 M^−1 c^−1
Hela cells [4]; Hela cells
  binding with cells over time: increases linearly over 20 hours
Hela cells [4]; Hela cells, after 6 hr incubation
  accumulation compared with cellular uptake of free chlorin e6: distinctly higher
Hela cells [4]; Hela cells, after 24 hr incubation, on average, listed as chlorin e6-folic acid conjugate
  cellular uptake relative to free chlorin e6: about 10 fold
Hela cells [4]; incubation 1 hour
  concentration in Hela cells: 0.40 relative units/10^4 cl.
Hela cells [4]; incubation 5 hours
  concentration in Hela cells: 1.80 relative units/10^4 cl.
Hela cells [4]; incubation 10 hours
  concentration in Hela cells: 2.50 relative units/10^4 cl.
Hela cells [4]; incubation 15 hours
  concentration in Hela cells: 12.5 relative units/10^4 cl.
Hela cells [4]; incubation 24 hours
  concentration in Hela cells: 15.0 relative units/10^4 cl.
[5]; Dimethyl sulfoxide
  l^00abs: 661 Nm
  l^00fl: 672 nm
  tS (life time of fluorescence): 4.6 ns
[5]; H2O, pH 8.1
  B (fluorescence photoresponse): 0.16
  l^00abs: 657 Nm
  l^00fl: 664 nm
  tS (life time of fluorescence): 4.3 ns
[5]; HSA, pH 8.1
  B (fluorescence photoresponse): 0.18
  l^00abs: 664 Nm
  l^00fl: 669 nm
  tS (life time of fluorescence): 5.2 ns
[5]; Liposomes, pH 8.1
  B (fluorescence photoresponse): 0.21
  l^00abs: 665 Nm
  l^00fl: 670 nm
  tS (life time of fluorescence): 5.4 ns
[5]; Methanol
  l^00abs: 662 Nm
  l^00fl: 667 nm
  tS (life time of fluorescence): 4.8 ns
[5]; Pyridine
  B (fluorescence photoresponse): 0.18
  l^00abs: 666 Nm
  l^00fl: 673 nm
  tS (life time of fluorescence): 5.0 ns
[5]; Tetrahydrofuran
  l^00abs: 667 Nm
  tS (life time of fluorescence): 5.0 ns
[5]; Triton X-100, pH 8.1
  B (fluorescence photoresponse): 0.19
  l^00abs: 665 Nm
  l^00fl: 670 nm
  tS (life time of fluorescence): 5.7 ns
[5]; in liposomes
  P (degree of fluorescence polarization): 0.13
Hela cells [6]
  phototoxicity in survival test: improved the photosensitivity
